According to ChEMBL document CHEMBL3044780, “Simple and Rapid Screening Method for Photosystem II Inhibitory Herbicides Using Photoautotrophically Cultured Plant Cells with Chlorophyll Fluorescence Monitoring” (Biosci Biotechnol Biochem, 1993):

Tests used:
[1] = Lipophilicity, log P of the compound; type: physicochemical; conditions: octanol/water
[2] = tested on: Vigna radiata var. radiata; assay: Herbicidal activity against Vigna radiata var. radiata assessed per 100 m'2 after 10 days by greenhouse pot test; type: functional

| SMILES | logP [1] | pLD50 [2] |
| --- | --- | --- |
| CN(C)C(=O)Nc1ccc(C#N)cc1 | 0.97 | 0.63 |
| CN(C)C(=O)Nc1ccc(I)cc1 | 2.36 | 1.75 |
| CN(C)C(=O)Nc1ccc(Br)cc1 | 2.07 | 1.86 |
| CN(C)C(=O)Nc1ccc(O)cc1 | 0.37 | <0.4 |
| CN(C)C(=O)Nc1cccc(F)c1 | 1.37 | 1.76 |
| CN(C)C(=O)Nc1cccc(Cl)c1 | 2.33 | 2.16 |
| COc1cccc(NC(=O)N(C)C)c1 | 1.22 | 1.15 |
| CN(C)C(=O)Nc1cccc([N+](=O)[O-])c1 | 1.33 | <0.4 |
| CN(C)C(=O)Nc1cccc(C#N)c1 | 0.98 | <0.4 |
| CN(C)C(=O)Nc1cccc(O)c1 |  | <0.4 |
| CN(C)C(=O)Nc1ccc(F)cc1 | 1.13 | 1.67 |
| Cc1ccc(NC(=O)N(C)C)cc1 | 1.41 | 1.21 |
| COc1ccc(NC(=O)N(C)C)cc1 | 1.02 | 1.61 |
| CN(C)C(=O)Nc1ccc(C(F)(F)F)cc1 | 2.31 | 1.45 |
| CN(C)C(=O)Nc1ccc([N+](=O)[O-])cc1 | 1.43 | <0.4 |
| Cc1cccc(NC(=O)N(C)C)c1 | 1.46 |  |
| CN(C)C(=O)Nc1ccc(Cl)c(Cl)c1 [DCMU] |  | 2.75 |
| CN(C)C(=O)Nc1ccccc1 [FENURON] |  | 1.54 |
| CN(C)C(=O)Nc1cccc(C(F)(F)F)c1 [FLUOMETURON] | 2.2 | 1.3 |
| CC(C)c1ccc(NC(=O)N(C)C)cc1 [ISOPROTURON] | 2.87 | 1.92 |
| CN(C)C(=O)Nc1ccc(Cl)cc1 [MONURON] | 1.99 | 2.01 |
